pIC50: −log10 of the molar value.
Tests used:
[1] = Inhibition of tubulin polymerization at 3 uM after 1 hr by fluorescence assay
MCF7 = test: cells; settings: Homo sapiens, MCF7, 48 h
Description: Cytotoxicity against human MCF7 cells after 48 hrs by MTT assay

HT-29 = test: Cytotoxicity against human HT-29 cells after 48 hrs by MTT assay; assay type: functional, cell-based; settings: HT-29, 48 h
A-375 = test: Cytotoxicity against human A375 cells after 48 hrs by MTT assay; assay type: functional, cell-based; settings: A-375, 48 h
A549 [2] = test: cells; settings: Homo sapiens, A549, 48 h
Description: Cytotoxicity against human A549 cells after 48 hrs by MTT assay

ACHN = test: Cytotoxicity against human ACHN cells after 48 hrs by MTT assay; assay type: functional, cell-based
A549 [3] = test: Induction of apoptosis in human A549 cells assessed as late apoptotic cells at 2 uM after 48 hrs by annexin-V FITC/propidium iodide staining based FACS analysis; assay type: functional
A549 [4] = test: Cell cycle arrest in human A549 cells assessed as cell accumulation at subG1 phase at 2 uM after 48 hrs by propidium iodide staining based flow cytometry (reference value: […]); assay type: functional
A549 [5] = test: Induction of apoptosis in human A549 cells assessed as early apoptotic cells at 2 uM after 48 hrs by annexin-V FITC/propidium iodide staining based FACS analysis; assay type: functional
A549 [6] = test: Induction of apoptosis in human A549 cells assessed as necrotic cells at 2 uM after 48 hrs by annexin-V FITC/propidium iodide staining based FACS analysis; assay type: functional
A549 [7] = test: Cell cycle arrest in human A549 cells assessed as cell accumulation at G0/G1 phase at 2 uM after 48 hrs by propidium iodide staining based flow cytometry (reference value: 70.15%); assay type: functional
A549 [8] = test: Induction of apoptosis in human A549 cells assessed as viable cells at 2 uM after 48 hrs by annexin-V FITC/propidium iodide staining based FACS analysis; assay type: functional; settings: A549, 48 h, read-out: Activity
A549 [9] = test: Cell cycle arrest in human A549 cells assessed as cell accumulation at G2/M phase at 2 uM after 48 hrs by propidium iodide staining based flow cytometry (reference value: 23.75%); assay type: functional

| SMILES | inhibition [1] | pIC50 (MCF7) | pIC50 (HT-29; read-out: IC50) | pIC50 (A-375) | pIC50 (A549 [2]) | pIC50 (ACHN) | pIC50 (HT-29) | Activity (A549 [3]) | Activity (A549 [4]) | Activity (A549 [5]) | Activity (A549 [6]) | Activity (A549 [7]) | viability at 2 µM (A549 [8]) | Activity (A549 [9]) |
| --- | --- | --- | --- | --- | --- | --- | --- | --- | --- | --- | --- | --- | --- | --- |
| COC(=O)Nc1nc2cc(C(=O)c3cccs3)ccc2[nH]1 | 59.6% |  |  |  |  |  |  |  |  |  |  |  |  |  |
| CCOc1ccc2nc(NC(=O)COc3cc(/C=C/C(=O)c4cc(OC)c(OC)c(OC)c4)ccc3OC)sc2c1 |  | 5.38 | 5.62 | 5.24 | 5.09 | 5.59 |  |  |  |  |  |  |  |  |
| COc1ccc(/C=C\c2cc(OC)c(OC)c(OC)c2)cc1O [COMBRETASTATIN A4] | 69.7% | 6.74 |  | 6.68 | 6.96 | 6.77 | 6.03 | 23.3% | 8.44% | 0.3% | 22% | 13.98% | 54.4% | 63.75% |
